Data set [1] in a line: Crystallinity loss (amorphization degree) by DSC. Particulars: result in words. The data set is classed as physicochemical. Here is the method: The amorphization degree can be measured by well known methods such as for example DSC, RX, IR, etc. […] The amorphization degree is determined by DSC as variation reduction) of the subtended area of the endothermic melting peak of the active principle. When the amorphization is complete, the melting peak characteristic of the active principle of formula (I) substantially disappears. This means that there is a variation of the enthalpy associated to the melting peak. The specific melting enthalpy ΔH (Joule/g) of the product as such and of the product treated with processes able to decrease the crystallinity (formulation) thereof, is determined by DSC analysis. The percent crystallinity loss is evaluated by the following equation: [formula] The scanning parameters adopted for the DSC analysis are the following: Scanning range: from 30° C. min. to 330° C. max Scanning rate: 10 K/min

The nature of data set [2]: Dissolution rate test in deionized water (USP XXIII apparatus, UV 235 nm). The data set is classed as physicochemical. The conditions noted are these: for % of active principle passed in solution after 10 minutes: as stated in the text of the Examples; for % by weight of the active principle passed in solution: 30 mg active principle in 1000 ml deionized water, 37°C, 100 rpm. Here is the method: The dissolution rate test is carried out in a dissolving equipment according to United States Pharmacopeia 23 by using a volume of deionized water of 1000 ml. The blade stirrer speed is of 100 rpm and the temperature is 37±0.5° C.
In a little glass vessel an exact amount of each sample is weighed so that it contains an amount of the active principle equal to 30 mg, which is directly introduced in the vessel containing the deionized water. At predetermined times, respectively of 5, 10, 15, 30, 45, 50, 60, 90 and 120 minutes from the beginning of the test, the amount of the nitroderivative compound passed in solution is determined, by measuring the concentration w/v (weigh/volume) thereof by UV spectrophotometry at the wave length of 235 nm, using a calibration line. The data are expressed as percentage of nitroderivative compound passed in solution in connection with the time. The amount of the compound of formula (I) passed in solution at the time of 10 minutes is at least about 10 times higher with respect to that of the nitroderivative compound not in amorphous form.
The dissolution rate of 3-(nitroxymethyl)phenyl ester of the acetylsalicylic acid as such and in the preparations containing it according to the examples described hereinafter, has been carried out in a dissolving equipment according to USP (United States Pharmacopeia) XXIII.
The test is carried out by using a volume of deionized water of 1000 ml. The angle rate of the blade stirrer is of 100 rpm and the temperature of 37±0.5° C.
In a little glass vessel an exact amount of each preparation to be tested is weighed so that it contains an amount of the active principle equal to 30 mg, which is directly introduced in the vessel. At predetermined times, respectively of 5, 10, 15, 30, 45, 50, 60, 90 and 120 minutes from the beginning of the test the amount of the compound passed in solution is determined, by measuring the concentration w/v thereof by UV spectrophotometry at the wave length of 235 nm, using a calibration line. The data are expressed as percentage of active principle passed in solution in connection with the time.

For `CC(=O)Oc1ccccc1C(=O)Oc1cccc(CO[N+](=O)[O-])c1` [Example 1, 3-(nitroxymethyl)phenyl ester of the acetylsalicylic acid], the “crystalline state of the active principle by DSC analysis” value in data set [1] is “completely crystalline”. For the same compound, the “% of active principle passed in solution after 10 minutes” value in data set [2] came out at 0.3%. The “% by weight of the active principle passed in solution” value (“% by weight” below) in data set [2] (time 5 minutes, listed as Ex. 1) worked out at 0.1 % by weight; in data set [2] (time 10 minutes, listed as Ex. 1), 0.3 % by weight; in data set [2] (time 15 minutes, listed as Ex. 1), 0.4 % by weight; in data set [2] (time 30 minutes, listed as Ex. 1), 0.8 % by weight; in data set [2] (time 45 minutes, listed as Ex. 1) it was 1.2 % by weight; in data set [2] (time 60 minutes, listed as Ex. 1), 1.6 % by weight. The “% by weight” value amounted to 2.4 % by weight in data set [2] (time 90 minutes, listed as Ex. 1) and 3.1 % by weight in data set [2] (time 120 minutes, listed as Ex. 1).
`CC(=O)Oc1ccccc1C(=O)Oc1cccc(CO[N+](=O)[O-])c1` [Example 7, 3-(nitroxymethyl)phenyl ester of the acetylsalicylic acid]: the “crystalline state of the active principle by DSC analysis” value in data set [1] is on record as “completely crystalline form”. For the same compound, the “% of active principle passed in solution after 10 minutes” value in data set [2] is given as 0.5%. Further, the “% by weight” value in data set [2] (time 0 minutes) is 0.0 % by weight; in data set [2] (time 5 minutes), 0.3 % by weight; in data set [2] (time 10 minutes), 0.5 % by weight; in data set [2] (time 15 minutes) it was 0.8 % by weight; in data set [2] (time 30 minutes), 1.5 % by weight; in data set [2] (time 45 minutes) it was 2.2 % by weight. Further, the “% by weight” value in data set [2] (time 60 minutes) is on record as 2.7 % by weight; in data set [2] (time 90 minutes), 4.0 % by weight; in data set [2] (time 120 minutes), 5.2 % by weight.
